# Source: a melting point compilation (Tetko et al.)
row,SMILES,melting point [°C]
1,COc1cc(-c2nnc3n2N=C(c2ccccc2)CS3)cc(OC)c1OC,197
2,Nc1c(Cl)cc(F)cc1Cl,56
3,C=C1C(C)CCC2(C)C3=C(C(=O)C4(CC4C)C(OC(C)=O)C3=O)C(OC(C)=O)C(O)C12 (configuration not stated),233
4,O=[N+]([O-])c1ccc(OCCN2CCOCC2)cc1,84 to 86
5,Nc1ccc(OCCN2CCOCC2)cc1,53 to 57
6,CN1CCN(C2CCNCC2)CC1,54.5
7,CC(CC(C(N)=O)(c1ccccc1)c1ccccn1)N(C)C (configuration not stated),156
8,COc1ccc(CCl)c(C)c1CCl,97
9,N#CC(C#N)=C1Sc2nc3ccccc3nc2S1,221
10,O=C(O)c1ccc2[nH]c3c(c2c1)CCCC3,266 to 268
11,CC(=O)OC1CCC2C3CCC4CC(C(C)=O)CCC4(C)C3CCC12C (configuration not stated),140
12,O=Cc1ccsc1Sc1ccc(Cl)cc1,57 to 60
13,ClCc1cccc2ccccc12,32
14,N#Cc1sccc1Br,49
15,O=C1CCC2(CC1)OCCO2,74 to 76
16,N=C(N)NOCCC(N)C(=O)O (configuration not stated),184
17,Nc1ccccc1N1CCNCC1,115
18,C1CCCNCCC1,29
19,Fc1cc(CBr)ccc1Cl,32
20,Nc1ncnc(Nc2ccc(Cl)cc2)n1,233
21,CCCCCCNC(=S)NCCCCCC,39 to 41
22,COC(=O)c1cnccn1,58
23,Oc1ncnc2cccc(F)c12,238
24,CC(C)(C)OC(=O)N1CCCC[C@@H]1C(=O)O,118 to 122

row,SMILES,melting point [°C]
1,CC1(C)C(C=C(Cl)C(F)(F)F)C1C(=O)O (configuration not stated),108
2,OCc1ccc(Br)cn1,59 to 60
3,CCCCC(=O)Cl,-110
4,O=CC=Cn1ccnc1,118
5,Fc1c(F)c(F)c(I)c(F)c1F,-29
6,O=C(O)CCN1C(=O)C=CC1=O,104
7,CC1(C)CC(=O)C(=NNc2cccc([N+](=O)[O-])c2)C(=O)C1,186
8,"CC1CCC(C(C)C)C(OC(=O)C(C)O)C1 (single isomer, unassigned; (-))",40
9,Nc1cccc(C2OCCCO2)c1,75 to 76
10,Cn1cc(Br)c(C(=O)O)n1,211 to 213
11,Clc1ccc(SCSc2ccc(Cl)cc2)cc1,47
12,O=Cc1ccc2nccn2c1,152
13,COC(=O)CCc1c([N+](=O)[O-])cc2c(c1[N+](=O)[O-])NC(=O)CC2,166
14,O=C(O)CCCSSCCCC(=O)O,105 to 110
15,O=[N+]([O-])c1cccnc1,40
16,OC1COC(Oc2ccc3cc(Br)ccc3c2)C(O)C1O (configuration not stated),190 to 196
17,CC(=O)OCC1C(=O)C2(C)CCC1C2(C)C (configuration not stated),148
18,CC(C)NC(=S)NC(C)C,144
19,COc1cc(C=C(C)[N+](=O)[O-])cc(OC)c1,87 to 89
20,ON=Cc1ccc2c(Br)cccc2c1,178
21,O=S(=O)(Cl)c1ccc(-c2cc(C(F)(F)F)on2)s1,106 to 107
22,N[C@H](c1ccccc1)[C@H](N)c1ccccc1,81 to 84
23,Nc1ccc(Br)c(Cl)c1,74
24,O=c1[nH]c2ccccc2nc(C(F)(F)F)c1=NNc1cc(-c2ccccc2)n[nH]1,159

row,SMILES,melting point [°C]
1,O=Cc1c(Sc2ccc(Cl)cc2)nc2sccn12,139 to 141
2,CCOc1ccc(Cc2nccc3cc(OCC)c(OCC)cc23)cc1OCC,100
3,Clc1ccc(Cc2c(N=Cc3ccc4c(c3)OCO4)n[nH]c2N=Cc2ccc3c(c2)OCO3)cc1,206 to 208
4,FC(F)(Br)C(F)(F)Br,-110
5,CCOC(=O)CN1CCN(C(=O)C=Cc2cc(OC)c(OC)c(OC)c2)CC1,96
6,Cc1cc2ncc(S(=O)(=O)C(C)(C)C)c(N)n2n1,206 to 208
7,N#CC(C#N)=C1CC(c2ccc(Cl)cc2)=C(C#N)C(=N)N1c1ccccc1,290 to 295
8,CCCCCCCCCCCCCCOCCOCCOCCOCCOCCOCCO,32.5
9,CC1(C)CCc2cc(S(=O)(=O)Cl)ccc2O1,92 to 94
10,CC12CCC(C(=C/O)/C1=N\NC(N)=O)C2(C)C (configuration not stated),205 to 206
11,Cc1nc(-c2ccc(CBr)cc2)no1,103 to 104
12,NC1CCCCCCCCCCC1,28 to 30
13,O=[N+]([O-])c1ccc(F)c(Cl)c1,44
14,COc1ccc2c(C)cc(=O)oc2c1,161
15,Cc1cc(C)c2c(N)c(C(N)=O)sc2n1,234 to 235
16,CC12CCC(=O)C=C1CCC1C2C(=O)CC2(C)C(C(=O)CO)CCC12 (configuration not stated),184
17,CN(C)c1ccc(-c2ccc(N(C)C)cc2)cc1,194
18,Cc1ccc(C(=O)C2=NOC3C(=O)N(c4cc(Cl)ccc4Cl)C(=O)C23)cc1 (configuration not stated),191
19,C(=C/c1ccco1)/c1ccc2cc3ccc(/C=C/c4ccco4)nc3cc2n1,272
20,O=Cc1cc(F)ccc1O,84
21,CCCCCCCCCCCCCOCC1CO1 (configuration not stated),1.6
22,NC(=S)NCCN1CCCCC1,107 to 110
23,COc1ccc(N)cc1N,67.5
24,CC1OC(=O)C(C)C1CC(O)C(C)(O)C1CCC2(O)C3=CC(=O)C4CC(O)C(O)CC4(C)C3CCC12C (configuration not stated),158 to 160

# The remaining lines, values ahead:
row,melting point [°C],SMILES
1,118 to 119,O=C(O)c1cccc(COc2ccccc2)c1
2,198,CCCN(CCC)S(=O)(=O)c1ccc(C(=O)O)cc1
3,118,Cc1c2ccccc2nc2ccccc12
4,151 to 153,CCOC(=O)c1c(SC)nn(S(=O)(=O)c2ccc(C)cc2)c1N
5,241,O=Cc1c[nH]c2ccc(OCc3ccccc3)cc12
6,228,CCOC(=O)C1=C(C)NC(=O)NC1c1cccc([N+](=O)[O-])c1 (configuration not stated)
7,236,Nc1ncnc(Nc2ccccc2)n1
8,236 to 237,NC(Cc1ccc([N+](=O)[O-])cc1)C(=O)O (racemic)
9,115,Cc1ccccc1NC(=O)c1cnc(C(C)(C)C)c(Cl)n1
10,226,CCCc1ccc(-c2ccc(C(=O)O)cc2)cc1
11,-50,CCOC(=O)C(C)=O
12,125 to 129,Cc1ccccc1CC(NC(=O)OC(C)(C)C)C(=O)O (racemic)
13,248 to 254,O=C(O)c1ccc2cc[nH]c2c1
14,155 to 156,Cc1c(C(=O)O)nnn1-c1cccc(C(F)(F)F)c1
15,203 to 204,Cc1ccccc1N1C(=O)C2ON=C(C(=O)c3ccco3)C2C1=O (configuration not stated)
16,66,c1ccc(OCCOCCOc2ccccc2)cc1
17,150 to 152,Cc1onc(-c2c(Cl)cccc2Cl)c1C(=O)NN
18,75,BrC(Br)=Cc1ccccc1
19,191,Nc1ccc(F)c(C(=O)O)c1
20,47,CCN(CC)C(=O)c1ccccc1CC(=O)c1ccccc1C
21,171 to 172,Cc1nnc2sc(SCc3ccccc3)nn2c1=O
22,103,CC(O)C(NC(=O)OCc1ccccc1)C(=O)O (configuration not stated)
23,112,COC(=O)C1(S(=O)(=O)c2ccc(Br)cc2)CCCCC1
24,126 to 127,Cc1cc(C)c(CC(=NOCc2ccccc2)c2cc3cc(Br)ccc3o2)c(C)c1
25,219,c1ccc(SCc2ccc(CN3CCOCC3)cc2)cc1
26,148,CCOc1cc(NC(C)=O)ccc1C(=O)OC
27,308 to 309,CN(C)c1ccc(/C=C(/C#N)c2nc3ccccc3c(=O)[nH]2)cc1
28,178,COc1ccc(-c2ccc(S(=O)(=O)NC(C(=O)O)C(C)C)cc2)cc1 (configuration not stated)

row,melting point [°C],SMILES
1,89 to 90,O=C(CBr)c1cc2ccccc2o1
2,295,NC(=O)c1nn(-c2ccccc2)c2ncnc(N)c12
3,52,CC(C)(Oc1ccc(Cl)cc1)C(=O)OCCCOC(=O)C(C)(C)Oc1ccc(Cl)cc1
4,137 to 139,CC(=O)OC1CC[C@@]2(C)C(CC[C@@H]3[C@@H]2CC[C@@]2(C)[C@H]3CC[C@]2(O)CCc2ccccc2)C1 (some centres not stated)
5,138 to 141,N#CN=CNc1ccccc1
6,186 to 187,CC(CC/C(=N/O)C(C)C)CC(=O)O (configuration not stated)
7,65,CC(=O)OCCc1ccc(CCOC(C)=O)cc1
8,207 to 210,O=C(O)C=Cc1ccc(F)cc1
9,144,Cc1ccccc1N/N=C(\C#N)c1nc(-c2ccccc2)cs1
10,198,O=[N+]([O-])c1ccc(Nc2ccccc2O)c([N+](=O)[O-])c1
11,255,COc1ccccc1N/N=C(/C#N)c1nc2ccccc2c(=O)[nH]1
12,103,NS(=O)(=O)Cc1ccccc1
13,123 to 126,COC(=O)c1ccc2cc(Br)ccc2c1
14,126,O=C(COC(=O)c1ccccc1)NC(CO)(CO)CO
15,210,N=C1SCCN1CC(=O)c1ccc([N+](=O)[O-])cc1
16,180,CC12CCC(/C(=C/N(OC(=O)c3ccc([N+](=O)[O-])cc3)c3ccccc3)C1=O)C2(C)C (configuration not stated)
17,237,Cc1csc(NS(=O)(=O)c2ccc(N)cc2)n1
18,27,CCCCCC(=O)c1ccccc1
19,187,O=C1CCCC1C1(O)C(=O)Nc2ccccc21 (configuration not stated)
20,307 to 308,CC1=NN(c2ccccc2)C(=O)C1C(Br)C1(Br)C(=O)N(c2ccccc2)N=C1C (configuration not stated)
21,69,Cn1cc(C=O)c2ccccc21
22,54,C(=Nc1ccccc1)c1ccccc1
23,99 to 100,COc1ccccc1C(O)=C1C(=O)CN(C(C)C)C1=O
24,245 to 248,O=C1C=CC(=O)N1c1ccccc1N1C(=O)C=CC1=O
25,178 to 181,O=C(O)c1ccc(C(=O)C(F)(F)F)cc1
26,100 to 103,O=C(c1ccccc1)c1ccccc1NC(=O)[C@@H]1CCCN1Cc1ccccc1
27,5,OCc1ccccn1
